Test results reported in patent US20170312681A1, “PROCESS AND APPARATUS FOR SEPARATING ENTRAINED AMINES FROM A GAS STREAM” (Carbonoro B.V., priority 2014, published 2017).

Test: amine content of the aqueous phase after heat-induced phase separation of an aqueous MCA/DMCA mixture
Settings: 3 M MCA:DMCA 1:3 wt./wt. in water
Procedure: The phases were separated and the aqueous phase was analysed for determining the amine content.

CNC1CCCCC1 [MCA, N-methylcyclohexylamine]
MCA in aqueous phase (heated 24 h at 40 ° C.): 6940 mg/L | MCA in aqueous phase (heated 24 h at 50 ° C.): 5630 mg/L | MCA in aqueous phase (heated 24 h at 60 ° C.): 5090 mg/L | MCA in aqueous phase (heated 24 h at 70 ° C.): 4520 mg/L
